melting point [°C]	Compound
75.4 to 85.6	COc1cc2[nH]c(N(C)Cc3cccc(C(C)N4CCCC4)n3)nc(=O)c2c(C)c1OC (centres unmarked) [Example 275, 6,7-Dimethoxy-5-methyl-2-{methyl-[6-(1-pyrrolidin-1-yl-ethyl)-pyridin-2-ylmethyl]-amino}-1H-quinazolin-4-one]
70.8 to 78.8	COc1cc2[nH]c(N(C)Cc3cccc(C(C)N4CCC4)n3)nc(=O)c2c(OC)c1OC (centres unmarked) [Example 278, 2-{[6-(1-Aztidin-1-yl-ethyl)-pyridin-2-ylmethyl]-methyl-amino}-5,6,7-trimethoxy-1H-quinazolin-4-one]
171 to 172.4	COc1cc2[nH]c(N(C)Cc3cccc(C(C)N(C)S(C)(=O)=O)c3)nc(=O)c2c(OC)c1OC (centres unmarked) [Example 292, N-Methyl-N-[1-(3-{[methyl-(5,6,7-trimethoxy-4-oxo-1,4-dihydro-quinazolin-2-yl)-amino]-methyl}-phenyl)-ethyl]-methanesulfonamide]
68 to 70	COc1cc2[nH]c(N(C)Cc3cccc(C(C)N(C)C(=O)N(C)C)c3)nc(=O)c2c(OC)c1OC (centres unmarked) [Example 293]
145.8 to 146.9	COCCOC(=O)N(C)Cc1cccc(CN(C)c2nc(=O)c3c(C)c(OC)c(OC)cc3[nH]2)c1 [Example 294, (3-{[(6,7-Dimethoxy-5-methyl-4-oxo-1,4-dihydro-quinazolin-2-yl)-methyl-amino]-methyl}-benzyl)-methyl-carbamic acid 2-methoxy-ethyl ester]
168 to 170.5	COc1cc2[nH]c(N(Cc3ccccc3)C(C)C)nc(=O)c2cc1OC [Example A-7, 2-(Benzyl-isopropyl-amino)-6,7-dimethoxy-1H-quinazolin-4-one]
240 to 244	COc1cc2[nH]c(N(C)Cc3cccc(N4C=NC(C)(C)C4)c3)nc(=O)c2cc1OC [Example A-12, 2-{[3-(4,4-Dimethyl-4,5-dihydro-imidazol-1-yl)-benzyl]-methyl-amino}-6,7-dimethoxy-1H-quinazolin-4-one]
268 to 269.5	COc1cc2[nH]c(N(C)Cc3cccc(N)c3)nc(=O)c2c(C)c1OC [Example B-1, 2-[(3-Amino-benzyl)-methyl-amino]-6,7-dimethoxy-5-methyl-1H-quinazolin-4-one]
179 to 181.3	CNCc1cccc(CN(C)c2nc3cc(OC)c(OC)c(C)c3c(=O)[nH]2)c1 [Example C-1, 6,7-Dimethoxy-5-methyl-2-[methyl-(3-methylaminomethyl-benzyl)-amino]-1H-quinazolin-4-one]
146 to 147.5	COc1cc2nc(N(C)Cc3cccc(OCCO)c3)[nH]c(=O)c2c(OC)c1OC [Example F-1, 2-{[3-(2-Hydroxy-ethoxy)-benzyl]-methyl-amino}-5,6,7-trimethoxy-1H-quinazolin-4-one]
191 to 193.5	COc1cc2nc(N(C)Cc3cccc(OC[S+](C)[O-])c3)[nH]c(=O)c2c(C)c1OC (centres unmarked) [Example F-2, 2-[(3-Methanesulfinylmethoxy-benzyl)-methyl-amino]-6,7-dimethoxy-5-methyl-1H-quinazolin-4-one]
183.9 to 185.4	COc1cc2[nH]c(N(C)Cc3cccc(OCS(C)(=O)=O)c3)nc(=O)c2c(OC)c1OC [Example F-6, 2-[(3-Methanesulfonylmethoxy-benzyl)-methyl-amino]-5,6,7-trimethoxy-1H-quinazolin-4-one]
180.5 to 183.1	COc1cc2[nH]c(N(C)Cc3cccc(OCCO)c3)nc(=O)c2c(C)c1OC [Example F-9, 2-{[3-(2-Hydroxy-ethoxy)-benzyl]-methyl-amino}-6,7-dimethoxy-5-methyl-1H-quinazolin-4-one]
144.8 to 145.9	COCCOc1cccc(CN(C)c2nc(=O)c3c(C)c(OC)c(OC)cc3[nH]2)c1 [Example F-10, 6,7-Dimethoxy-2-{[3-(2-methoxy-ethoxy)-benzyl]-methyl-amino}-5-methyl-1H-quinazolin-4-one]
